Data reported in patent US7414061B2, “Aryl-isoxazol-4-yl-imidazole derivatives” (Hoffmann-La Roche Inc., priority 2005, dated 2008).

Target: T1, GABA A receptor α5β3γ2 (hα5) (Homo sapiens, UniProt P18507+P31644)
T1 construct: expressed in transfected cells; host or cells: HEK293 (transiently transfected), membrane preparation
Assay: [3H]flumazenil competition binding assay, human GABA A α5β3γ2
Details: displacement of [3H]flumazenil (0.5 nM) from HEK293 cell membranes expressing α5β3γ2; means of two determinations; read-out: Ki[nM] hα5
Experimental: The affinity of compounds at GABA A receptor subtypes was measured by competition for [3H]flumazenil (85 Ci/mmol; Roche) binding to HEK293 cells expressing rat (stably transfected) or human (transiently transfected) receptors of composition α1β3γ2, α2β3γ2, α3β3γ2 and α5β3γ2.
Cell pellets were suspended in Krebs-tris buffer (4.8 mM KCl, 1.2 mM CaCl2, 1.2 mM MgCl2, 120 mM NaCl, 15 mM Tris; pH 7.5; binding assay buffer), homogenized by polytron for ca. 20 sec on ice and centrifuged for 60 min at 4° C. (50000 g; Sorvall, rotor: SM24=20000 rpm). The cell pellets were resuspended in Krebs-tris buffer and homogenized by polytron for ca. 15 sec on ice. Protein was measured (Bradford method, Bio-Rad) and aliquots of 1 mL were prepared and stored at −80° C.
Radioligand binding assays were carried out in a volume of […] (96-well plates) which contained […] of cell membranes, [3H]flumazenil at a concentration of 1 nM for α1, α2, α3 subunits and 0.5 nM for α5 subunits and the test compound in the range of […]. Nonspecific binding was defined by 10^−5 M diazepam and typically represented less than 5% of the total binding. Assays were incubated to equilibrium for 1 hour at 4° C. and harvested onto GF/C uni-filters (Packard) by filtration using a Packard harvester and washing with ice-cold wash buffer (50 mM Tris; pH 7.5). After drying, filter-retained radioactivity was detected by liquid scintillation counting. Ki values were calculated using Excel-Fit (Microsoft) and are the means of two determinations.

`Cc1onc(-c2ccccc2)c1-c1cn(-c2ccc([N+](=O)[O-])cc2)c(COCc2ccccc2F)n1` [Example 160, 4-[2-(2-Fluoro-benzyloxymethyl)-1-(4-nitro-phenyl)-1H-imidazol-4-yl]-5-methyl-3-phenyl-isoxazole] was tested, and the Ki was 12.7 nM.

`Cc1onc(-c2ccccc2)c1-c1cn(-c2ccc([N+](=O)[O-])cc2)c(COCc2ccccn2)n1` [Example 161, 2-[4-(5-Methyl-3-phenyl-isoxazol-4-yl)-1-(4-nitro-phenyl)-1H-imidazol-2-ylmethoxymethyl]-pyridine] showed a Ki of 16.3 nM.

`Cc1cccc(COCc2nc(-c3c(-c4ccccc4)noc3C)cn2-c2ccc([N+](=O)[O-])cc2)n1` [Example 162, 2-Methyl-6-[4-(5-methyl-3-phenyl-isoxazol-4-yl)-1-(4-nitro-phenyl)-1H-imidazol-2-ylmethoxymethyl]-pyridine] was tested, and the Ki was 28.2 nM.

For `Cc1onc(-c2ccccc2)c1-c1cn(-c2ccc([N+](=O)[O-])cc2)c(COCc2cccnc2)n1` [Example 163, 3-[4-(5-Methyl-3-phenyl-isoxazol-4-yl)-1-(4-nitro-phenyl)-1H-imidazol-2-ylmethoxymethyl]-pyridine], the Ki was 9.5 nM.

Work on `Cc1onc(-c2ccccc2)c1-c1cn(-c2ccc([N+](=O)[O-])cc2)c(COCc2ccc(C(F)(F)F)nc2)n1` [Example 164, 5-[4-(5-Methyl-3-phenyl-isoxazol-4-yl)-1-(4-nitro-phenyl)-1H-imidazol-2-ylmethoxymethyl]-2-trifluoromethyl-pyridine] yielded a Ki of 27 nM.

Work on `Cc1onc(-c2ccccc2)c1-c1cn(-c2ccc([N+](=O)[O-])cc2)c(COCc2ccncc2)n1` [Example 165, 4-[4-(5-Methyl-3-phenyl-isoxazol-4-yl)-1-(4-nitro-phenyl)-1H-imidazol-2-ylmethoxymethyl]-pyridine] yielded a Ki of 18.2 nM.
